“Also recorded” adds a separate entry of the source. Peptide text beside a SMILES is read from it. * marks the point of attachment. For = O=C*
Tests used:
[1] = system: vomeronasal sensory neurons (VSNs); assay: Density of responding VSN knobs in mice of various genotypes, Rhod-2 Ca2+ imaging (Fig. 7a, b); type: cell-based, mouse; conditions: f-MKKFRW 1 µM or PUM; for density of responding knobs: mean ± s.d.
Text: Mice (6–20 week old, either sex) were euthanized by CO2 inhalation according to institutional guidelines. After decapitation, the skin was removed from the skull, the mandible was cut off and the cranium was opened by a sagittal cut, 1–2-mm right-lateral in parallel to the midline. The palate and the right incisor were removed and the hemisected skull was mounted in low-melting agarose (4%). The bony capsule of the VNO was opened with fine forceps and the nonsensory epithelium was stripped off. Tissue and cell debris were gently washed off, and the en face preparation was superfused with physiological S1 solution (120 mM NaCl, 25 mM NaHCO3, 5 mM KCl, 1 mM MgSO4, 1 mM CaCl2, 10 mM glucose, 5 mM BES, pH 7.3) saturated with carbogen (95% O2, 5% CO2).
Loading of the VNE with Rhod-2/AM (5–15 µM, 1 h) was performed in S1 solution under carbogen atmosphere at RT. Images were taken with an upright confocal laser scanning microscope (Leica TCS SP5 II, 20x water immersion objective HCX APO L20x/1.0w) equipped with Ar and He/Ne lasers. GFP was excited at 488 nm, Venus at 514 nm and Rhod-2 at 543 nm. Emission was measured at 490–520 nm (GFP), 520–600 nm (Venus) and 560–680 nm (Rhod-2). To minimise interference between Venus and Rhod-2 fluorescence, images were taken sequentially (sample interval per image, 3–4 s). Peptide stimuli were applied to the VNE surface with a local perfusion system which, when positioned close to the anterior end of the VNO, produced a continuous solution stream from rostral to caudal along the VNO axis. Data analysis was performed with the open source software ImageJ (NIH). Ca^2+ responses of individual dendritic knobs were normalised to the knob resting fluorescence level obtained before stimulation (ratio Fx/F0, Fx = actual fluorescence; F0 = mean fluorescence of 3–5 images before ligand application). Mapping was performed by superimposing Ca^2+ peak images onto images showing intrinsic fluorescence for specific markers.
Predator urine mix was composed of urine from mountain lion, coyote, bobcat, fox and marten (at equal volume ratios), purchased from Predatorpee (USA) and Kieferle (Germany). The fMet peptides were as described above. Stimuli were applied in S2 solution (140 mM NaCl, 5 mM KCl, 10 mM HEPES, 1 mM CaCl2, 1 mM MgCl2, 10 mM glucose, pH 7.3 with NaOH).
For calculations of VSN knob density, we analysed randomly selected VNE areas, each containing several hundred knobs. The mean density of OMP-GFP+ knobs was 11.25 knobs/100 µm². Through the knob density and the VNE surface area, an estimate of the total number of VSNs per VNO can be made. Assuming a mean lumen diameter of 450 µm, a length of 2 mm and an end-to-end semilunar cross-sectional shape of the VNO, a number of ~150,000 VSNs (per side) can be estimated. This number is consistent with our previous estimates.

Fpr3-expressing VSNs = assay: Egr1 induction in Fpr3-positive VSNs after oronasal peptide application, RNAscope (Fig. 7c, e); type: in vivo, mouse; conditions: 100 µM, male B6 mice
Protocol: For each mouse, serial coronal VNO cryosections (12 µm) were collected as two alternate sets, each representing every second section of the whole VNO. One set was subjected to RNAscope in situ hybridisation using the RNAscope Fluorescent Multiplex Detection Kit (ACD Bio-Techne) and specific probes for Fpr3 and LacZ according to the manufacturer’s protocol. Sections were incubated in 1 x citrate buffer pH 6.0 (DAKO, Germany) for 5 min at 98 °C in a coplin jar, rinsed twice in distilled water, dehydrated in 100% ethanol, and air dried prior to protease III treatment for 30 min at 40 °C. After rinsing in distilled water, sections were simultaneously hybridised with RNA scope target probes generated for mouse Fpr3 and E.coli LacZ (ACD Bio-Techne). The Fpr3 probe was designed as channel 1 probe containing 7 ZZ structures targeting base pairs 456–1143 of NM_008042.2, specific to mouse Fpr3. The LacZ probe, designed as channel 3 probe contains 30 ZZ structures targeting the region 279–1790 bp of KC847299.1 (cat# 313451-C3). […] Following hybridisation (2 h, 40 °C), sections were rinsed twice for 2 min in wash buffer (ACD Bio-Techne), and sequentially treated with amplification solutions at 40 °C (30 min Amp1-FL, 15 min Amp2-FL, 30 min Amp3-FL) and fluorescence reagent (15 min, 40 °C Amp4-altC), with intermitting washing steps at room temperature between reagents. Cell nuclei were stained with DAPI solution (ACD Bio-Techne) for 1 min, and tissue sections were mounted with DAKO fluorescence medium and stored for 12 h at 4 °C. Fluorescence images of the RNAscope results were acquired from each section using a Zeiss LSM 880 confocal microscope containing a 32-channel GaAsP-PMT and 2-channel PMT QUASAR detector.
We stimulated adult male B6 mice with f-MKKFRW (100 µM) and performed double-labelling RNAscope in situ hybridisation for Fpr3 and the immediate early gene Egr1 on VNO tissue sections. […] VNO tissue was prepared for RNAscope fluorescence in situ hybridisation as described above using Fpr3 and Egr1 probes simultaneously. […]

[2] = B6, B2m-Venus+/− and NP2∆+/− mice pooled, n = 14 mice

Q: Which results are given for `CSCC[C@H](NC=O)C(=O)N[C@@H](CCCCN)C(=O)N[C@@H](CCCCN)C(=O)N[C@@H](Cc1ccccc1)C(=O)N[C@@H](CCCNC(=N)N)C(=O)N[C@@H](Cc1c[nH]c2ccccc12)C(=O)O` [f-MKKFRW] (For-MKKFRW-OH)?
A: VSN Ca2+ responses, in words ([1]; 129Sv mice): no responses; also recorded: fail to respond; density of responding knobs ([1]; B2m-Venus +/−): 0.2 ± 0.1%; density of responding knobs ([1]; B6): 0.12 ± 0.04%; density of responding knobs ([1]; NP2∆ +/−): 0.2 ± 0.09%; VSN Ca2+ responses, in words ([1]; Trpc2 −/− mice): absent; also recorded: fail to respond; VSN Ca2+ responses, in words ([1]; cGαo −/− mice): absent; also recorded: fail to respond; density of responding knobs, mean [1, 2]: 0.16 ± 0.08%; density of responding knobs, range [1, 2]: 0.07 to 0.29%; VSN Ca2+ responses, in words ([1]; ∆Fpr3-lacZ −/− mice): absent; also recorded: fail to respond; Egr1-positive / Fpr3-positive VSNs (Fpr3-expressing VSNs; oronasal): 145/317; fraction of Fpr3-positive VSNs co-localised with Egr1 (Fpr3-expressing VSNs; oronasal, mean ± s.d.): 0.46 ± 0.11; Egr1 induction in Fpr3-positive VSNs (Fpr3-expressing VSNs; oronasal or voluntary uptake, both types of experiments): ~ 50%

From paper PMC6814738, “Bacterial MgrB peptide activates chemoreceptor Fpr3 in mouse accessory olfactory system and drives avoidance behaviour” (Nature Communications, 2019)
